Results on 5 molecules are retold here after patent publication US20230218624A1 (Urovant Sciences GmbH, priority 2017, published 2023).

Like-named read-outs stand apart in the source and are kept apart here.

A short description of data set [1]: Mass balance study with [14C]vibegron in healthy subjects. Conditions: human plasma, 2 and 4 hr.
The next data set relates to QTc interval. Put plainly: Thorough QT study, single oral doses. The conditions noted are these: single dose 400 mg moxifloxacin.
Another data set relates to men and women with OAB. Put plainly: Phase 2b efficacy study in men and women with OAB. The data set is classed as in vivo, human. The source says: Part 2 was designed to continue to assess the safety and efficacy of concomitant dosing. […] Subjects in both Part 1 and Part 2 had the option of enrolling in a 1-year extension. Participants were required to keep a voiding diary, recording the occurrence of each strong urge, total incontinence, and urge incontinence episode. Efficacy data for Part 1 and Part 2 are summarized herein.
The total number of urgency incontinence episodes must have exceeded the total number of stress incontinence episodes for all subjects.
Conversely, a dose dependent effect on urge incontinence or total incontinence was not observed.

The subject of data set [2] is patients with overactive bladder. Put plainly: Phase 2 safety data, adverse events (main study and 52-week extension). Set-up: Drug-related AE, n subjects / Drug-related AE, % subjects / Discontinuation due to AE, n subjects / Discontinuation due to AE, % subjects / Discontinuation due to drug-related AE, n subjects / Dry eye, n subjects / Dry eye, % subjects / Constipation, n subjects / Constipation, % subjects / Diarrhea, n subjects / Diarrhea, % subjects / Dry mouth, n subjects / Dry mouth, % subjects / Alanine aminotransferase increased, n subjects / Alanine aminotransferase increased, % subjects / Aspartate aminotransferase increased, n subjects / Aspartate aminotransferase increased, % subjects / Arthralgia, n subjects / Arthralgia, % subjects / Dizziness, n subjects / Dizziness, % subjects / Dysuria, n subjects / Dysuria, % subjects: dose or concentration left out as unconfirmed. The source says:
A placebo group was included in the main study, and a group that received tolterodine monotherapy was included in the main study and in the extension.

A further data set deals with patients with OAB. In words: Phase 2b cardiovascular safety: orthostatic AEs, HR and BP changes. The data set is classed as in vivo, human. Conditions: tolterodine 4 mg. The source says: None led to discontinuation. The overall incidence of orthostatic symptoms was low.
Small differences in the percent of subjects exceeding categorical heart rate and blood pressure thresholds for vibegron were similar to those in the tolterodine arm.

For data set [3] the following is noted: human, in vivo, po.
Where [4] appears, read: tolterodine ER 4 mg, OAB wet subjects.
Where [5] appears, read: 3 consecutive post-baseline visits.

In the case of `O=C(O)C1OC(OC(c2ccccc2)C2CCC(Cc3ccc(NC(=O)C4CCc5nccc(=O)n54)cc3)N2)C(O)C(O)C1O` (stereo not shown) [M7], the “share of total circulating drug-related material” value in data set [1] is listed as 12-14%.

For `COc1c(N2C[C@@H]3CCCN[C@@H]3C2)c(F)cc2c(=O)c(C(=O)O)cn(C3CC3)c12` [moxifloxacin, reference compound], the “effect on QTcF” value in the data set on QTc interval is “statistically significant effect”.

For the molecule `Cc1ccc(O)c([C@H](CCN(C(C)C)C(C)C)c2ccccc2)c1` [Tolterodine ER, tolterodine], in the data set on men and women with OAB (tolterodine ER 4 mg), the “Micturitions, change from baseline Week 8, mean” value is listed as −1.73; the “Micturitions, daily number, Week 8 mean” value worked out at 9.24; the “Micturitions, difference from placebo Week 8, difference in LS means” value is given as −0.54; the “Urgency episodes, change from baseline Week 8, mean” value is recorded as −2.52. In the data set on men and women with OAB (tolterodine ER 4 mg), the “Urgency episodes, daily number, Week 8 mean” value stood at 3.91 and the “Urgency episodes, difference from placebo Week 8, difference in LS means” value is on record as −0.94. In addition, the “Change from baseline in volume voided per micturition, difference from placebo in LS means” value in the data set with men and women with OAB (tolterodine ER 4 mg once daily, Week 8) was 30.77 mL. Also, in the data set with men and women with OAB (setting [4]), the “Total incontinence episodes, change from baseline Week 8, mean” value is given as −1.80; the “Total incontinence episodes, daily number, Week 8 mean” value was determined as 1.32; the “Total incontinence episodes, difference from placebo Week 8, difference in LS means” value is listed as −0.34; the “Urgency incontinence episodes, change from baseline Week 8, mean” value is on record as −1.67. In addition, in the data set with men and women with OAB (setting [4]), the “Urgency incontinence episodes, daily number, Week 8 mean” value is reported as 1.15 and the “Urgency incontinence episodes, difference from placebo Week 8, difference in LS means” value is −0.46. Further, in data set [2] (4 mg, first 12 weeks), the “Accidental overdose, % subjects” value is reported as “(2.3) %”; the “Accidental overdose, n subjects” value is 6; the “Fatigue, % subjects” value was “(2.3) %”; the “Fatigue, n subjects” value was 6. Besides, in data set [2] (4 mg, first 12 weeks), the “Headache, % subjects” value is recorded as “(3.5) %”; the “Headache, n subjects” value is reported as 9; the “Nasopharyngitis, % subjects” value was “(1.6) %”; the “Nasopharyngitis, n subjects” value was 4. Besides, in data set [2] (4 mg, first 12 weeks), the “Nausea, % subjects” value is on record as “(2.3) %”; the “Nausea, n subjects” value is recorded as 6; the “Osteoarthritis, % subjects” value is recorded as “(0.0) %”; the “Osteoarthritis, n subjects” value was determined as 0. In data set [2] (4 mg, first 12 weeks), the “Pain in extremity, % subjects” value is recorded as “(0.4) %”; the “Pain in extremity, n subjects” value turned out to be 1; the “Serious AE, % subjects” value is listed as “(1.2) %”; the “Serious AE, n subjects” value was 3. In addition, in data set [2] (4 mg, first 12 weeks), the “Sinusitis, % subjects” value is “(0.4) %”; the “Sinusitis, n subjects” value worked out at 1; the “Urinary tract infection, % subjects” value was “(4.7) %”; the “Urinary tract infection, n subjects” value is recorded as 12. Moreover, in data set [2] (4 mg, first 12 weeks), the “≥1 AE, % subjects” value is “(45.1) %” and the “≥1 AE, n subjects” value amounted to 116. In data set [2] (Phase 2 study arms), this molecule came in with a frequency of injuries of 2.1%. For the same molecule, in data set [2] (first 12 weeks), the “Alanine aminotransferase increased, % subjects” value is reported as “(0.4) %”; the “Alanine aminotransferase increased, n subjects” value was 1; the “Arthralgia, % subjects” value is “(1.2) %”; the “Arthralgia, n subjects” value was found to be 3. Further, in data set [2] (first 12 weeks), the “Aspartate aminotransferase increased, % subjects” value is “(0.0) %”; the “Aspartate aminotransferase increased, n subjects” value worked out at 0; the “Constipation, % subjects” value is “(1.9) %”; the “Constipation, n subjects” value is given as 5. In addition, in data set [2] (first 12 weeks), the “Diarrhea, % subjects” value is listed as “(3.5) %”; the “Diarrhea, n subjects” value is given as 9; the “Discontinuation due to AE, % subjects” value is on record as “(1.6) %”; the “Discontinuation due to AE, n subjects” value turned out to be 4. Moreover, in data set [2] (first 12 weeks), the “Discontinuation due to drug-related AE, n subjects” value turned out to be 0; the “Dizziness, % subjects” value is “(1.9) %”; the “Dizziness, n subjects” value is 5; the “Drug-related AE, % subjects” value was “(16.3) %”. Besides, in data set [2] (first 12 weeks), the “Drug-related AE, n subjects” value is reported as 42; the “Dry eye, % subjects” value is on record as “(3.9) %”; the “Dry eye, n subjects” value was found to be 10; the “Dry mouth, % subjects” value is reported as “(8.6) %”. In data set [2] (first 12 weeks), the “Dry mouth, n subjects” value is given as 22; the “Dysuria, % subjects” value is “(1.2) %”; the “Dysuria, n subjects” value is 3. The molecule further had an SAEs reported in data set [2] (tolterodine 4 mg, main study) of 3. Moreover, in the data set on patients with OAB, the “DBP change from baseline, mean (week 1)” value is −0.12 mm Hg; the “DBP change from baseline, mean maximum (week 1 to 8)” value stood at 5.19 mm Hg; the “HR change from baseline, mean (week 1)” value is 0.68 bpm; the “HR change from baseline, mean maximum (week 1 to 8)” value is 5.66 bpm. Moreover, in the data set with patients with OAB, the “SBP change from baseline, mean (week 1)” value worked out at 0.04 mm Hg and the “SBP change from baseline, mean maximum (week 1 to 8)” value came to 7.29 mm Hg. Also, in the data set with patients with OAB (setting [5]), the “DBP change from baseline ≥5 mm Hg, subjects” value is reported as “(12.4) %”; the “DBP change from baseline ≥10 bpm, subjects” value is “(5.4) %”; the “DBP change from baseline ≥15 bpm, subjects” value was “(1.2) %”; the “HR change from baseline ≥5 mm Hg, subjects” value is given as “(12.0) %”. Besides, in the data set on patients with OAB (setting [5]), the “HR change from baseline ≥10 bpm, subjects” value is “(4.5) %”; the “HR change from baseline ≥15 bpm, subjects” value is “(1.7) %”; the “SBP change from baseline ≥5 mm Hg, subjects” value was “(16.9) %”; the “SBP change from baseline ≥10 bpm, subjects” value was “(7.9) %”. In the data set with patients with OAB (setting [5]), the “SBP change from baseline ≥15 bpm, subjects” value is given as “(2.9) %”.

In data set [3] (0.03 mg), `C#C[C@]1(O)CC[C@H]2[C@@H]3CCc4cc(O)ccc4[C@H]3CC[C@@]21C` [EE, ethinyl estradiol] displayed an AUC of conmed, geometric mean of 0.81 ng·h/mL.

With `C#C[C@]1(O)CC[C@H]2[C@@H]3CCC4=CC(=O)CC[C@@H]4[C@H]3CC[C@@]21CC` [LNG, levonorgestrel], the AUC of conmed, geometric mean in data set [3] (0.15 mg) is 31 ng·h/mL.
